Source: patent publication US20260217706A1, “HETEROCYCLIC COMPOUNDS, PREPARATION METHOD THEREFOR AND USE THEREOF” (GUANGZHOU YUFAN NANTU BIOTECHNOLOGIES CO., LTD, priority 2023, published 2026)

Assays:
CBL-B protein = CBL-B protein (Homo sapiens, UniProt Q13191); test: CBL-B binding experiment (Streptavidin-Tb cryptate / Ligand L1 displacement); conditions: 8 nM CBL-B protein, 25° C., 60 minutes; Ki=Relative IC50/2
Outline: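 Buffer was 20 mM HEPES pH 7.5, 150 mM NaCl, 0.01% Triton X-100, 0.5 mM TCEP and BSA. Ten-point compound dilutions were incubated with 8 nM CBL-B for 60 min at 25° C., then read by luminescence after another 60 min at room temperature. IC50 came from a four-parameter fit, with Ki = relative IC50/2.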

[1] = system: anti-CD3 activated human PBMCs; test: Effect of compounds on the level of IL-2 secretion by anti-CD3 activated human PBMCs (IL-2 ELISA); format: cell-based; conditions: compound concentration at which fold change in IL-2 = 5; hPBMCs, CD3 antibody 2 μg/mL, 48 h, compound from 3 μM
Description: 2. Inoculate the resuspended cells into a 96-well cell culture plate at 200 ul/well of cell suspension, and incubate in a 37° C. cell incubator for 1 h;
3. Adjust the compound concentration with DMSO, starting at a final concentration of 3 μM, and perform a 3-fold dilution sequentially for 10 concentration gradients, with an additional DMSO control well set up; and
4. Adjust the CD3 antibody to an appropriate concentration to achieve a final concentration of 2 μg/mL, mix thoroughly, and incubate in a 37° C. cell incubator for 48h.
5. After 48 h, centrifuge at 1500 rpm for 5 min to collect the supernatant of the culture medium for the human IL-2 ELISA test.
The OD values obtained from the ELISA test are converted into the fold change (FC) in IL-2 concentration. […] The EC50 is calculated using GraphPad Prism. When the fold change=5, the corresponding compound concentration is CFC=5 (in nM).

Chain of CBL-B protein (Q13191 whole entry): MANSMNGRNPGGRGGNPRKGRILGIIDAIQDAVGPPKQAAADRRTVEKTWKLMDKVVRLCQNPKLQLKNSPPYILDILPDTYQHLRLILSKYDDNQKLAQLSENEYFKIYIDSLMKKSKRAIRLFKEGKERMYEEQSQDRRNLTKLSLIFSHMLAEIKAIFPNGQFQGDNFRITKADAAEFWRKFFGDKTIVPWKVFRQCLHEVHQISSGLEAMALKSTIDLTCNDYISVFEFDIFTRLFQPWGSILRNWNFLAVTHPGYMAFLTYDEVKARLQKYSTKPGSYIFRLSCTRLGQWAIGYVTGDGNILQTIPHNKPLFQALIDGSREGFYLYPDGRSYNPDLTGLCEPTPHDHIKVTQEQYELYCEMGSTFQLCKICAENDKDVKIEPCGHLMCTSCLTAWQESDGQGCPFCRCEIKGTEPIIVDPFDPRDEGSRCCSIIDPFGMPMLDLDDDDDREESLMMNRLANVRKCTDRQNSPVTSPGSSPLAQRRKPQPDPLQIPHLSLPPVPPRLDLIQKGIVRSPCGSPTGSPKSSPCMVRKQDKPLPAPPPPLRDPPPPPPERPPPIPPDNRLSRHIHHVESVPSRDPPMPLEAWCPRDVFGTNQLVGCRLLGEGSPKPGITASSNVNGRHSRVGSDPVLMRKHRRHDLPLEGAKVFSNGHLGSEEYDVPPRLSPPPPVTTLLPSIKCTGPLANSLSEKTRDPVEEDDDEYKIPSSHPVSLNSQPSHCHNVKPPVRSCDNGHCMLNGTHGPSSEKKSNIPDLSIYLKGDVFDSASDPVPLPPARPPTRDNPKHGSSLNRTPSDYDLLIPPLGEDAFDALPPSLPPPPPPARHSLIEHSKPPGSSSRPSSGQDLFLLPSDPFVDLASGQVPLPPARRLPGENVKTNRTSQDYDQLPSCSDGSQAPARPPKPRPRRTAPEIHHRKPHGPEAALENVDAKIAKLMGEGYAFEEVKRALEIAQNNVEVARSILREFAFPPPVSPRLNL

Row | SMILES | Ki (CBL-B protein) [nM] | IL-2 CFC=5/nM [1] [nM]
1 | Cn1cnnc1C1(c2cccc(-n3cc(C(F)(F)F)c4cc(CN5CCCC(C(F)F)C5)[nH]c4c3=O)c2)CCC1 (racemic) [Compound T114, 6-[3-[1-(4-methyl-1,2,4-triazol-3-yl)cyclobutyl]phenyl]-2-[[rac-(3S)-3-(difluoromethyl)-1-piperidyl]methyl]-4-(trifluoromethyl)-1H-pyrrolo[2,3-c]pyridin-7-one] | < 50 | <500
2 | C[C@H]1CCCN(Cc2cc(C(F)(F)F)c3cn(-c4cccc([C@]5(c6nncn6C)C[C@@H](C)C5)c4)c(=O)n3c2)C1 (racemic) [Compound T140, 2-(3-((1s,3R)-3-methyl-1-(4-methyl-4H-1,2,4-triazol-3-yl)cyclobutyl)phenyl)-6-(((S)-3-methylpiperidin-1-yl)methy 1)-8-(trifluoromethyl)imidazo[1,5-a]pyridin-3(2H)-one] | < 50 | <500
3 | CCN(C)Cc1cc2c(C(F)(F)F)cn(-c3cccc(C4(c5nncn5C)CCC4)c3)c(=O)c2[nH]1 [Compound T002, 2-((ethyl(methyl)amino)methyl)-6-(3-(1-(4-methyl-4H-1,2,4-triazol-3-yl)cyclobutyl)phenyl)-4-(trifluoromethyl)-1,6-dihydro-7H-pyrrolo[2,3-c]pyridin-7-one] | < 50 | <500
4 | CCN(CC)Cc1cc2c(C(F)(F)F)cn(-c3cccc(C4(c5nncn5C)CCC4)c3)c(=O)c2[nH]1 [Compound T005, 2-(diethylaminomethyl)-6-[3-[1-(4-methyl-1,2,4-triazol-3-yl)cyclobutyl]phenyl]-4-(trifluoromethyl)-1H-pyrrolo[2,3-c]pyridin-7-one] | < 50 | <500
5 | Cn1cnnc1C1(c2cccc(-n3cc(C(F)(F)F)c4cc(CN5CC6CC6C5)[nH]c4c3=O)c2)CCC1 (stereo not shown) [Compound T007, 2-((3-azabicyclo[3.1.0]hexan-3-yl)methyl)-6-(3-(1-(4-methyl-4H-1,2,4-triazol-3-yl)cyclobutyl)phenyl)-4-(trifluoromethyl)-1,6-dihydro-7H-pyrrolo[2,3-c]pyridin-7-one] | < 50 | <500
6 | Cn1cnnc1C1(c2cccc(-n3cc(C(F)(F)F)c4cc(CNCCC5CC5)[nH]c4c3=O)c2)CCC1 [Compound T008, 2-[(2-cyclopropylethylamino)methyl]-6-[3-[1-(4-methyl-1,2,4-triazol-3-yl)cyclobutyl]phenyl]-4-(trifluoromethyl)-1H-pyrrolo[2,3-c]pyridin-7-one] | < 50 | <500
7 | Cn1cnnc1C1(c2cccc(-n3cc(C(F)(F)F)c4cc(CNC5(C)CCC5)[nH]c4c3=O)c2)CCC1 [Compound T009, 2-[[(1-methylcyclobutyl)amino]methyl]-6-[3-[1-(4-methyl-1,2,4-triazol-3-yl)cyclobutyl]phenyl]-4-(trifluoromethyl)-1H-pyrrolo[2,3-c]pyridin-7-one] | < 50 | <500
8 | C[C@H]1CCCN(Cc2cc3c(C4CC4)cn(-c4cccc(C5(Cc6nncn6C)CCC5)c4)c(=O)c3[nH]2)C1 [Compound T010, 4-cyclopropyl-2-[[(3S)-3-methyl-1-piperidyl]methyl]-6-[3-[1-[(4-methyl-1,2,4-triazol-3-yl)methyl]cyclobutyl]phenyl]-1H-pyrrolo[2,3-c]pyridin-7-one] | < 50 | <500
9 | C[C@H]1CCCN(Cc2cc3c(C4CC4)cn(-c4cccc([C@@H](c5nncn5C)C5CCC5)c4)c(=O)c3[nH]2)C1 [Compound T013, 6-(3-((S)-cyclobutyl(4-methyl-4H-1,2,4-triazol-3-yl)methyl)phenyl)-4-cyclopropyl-2-(((S)-3-methylpiperidin-1-yl)methyl)-1,6-dihydro-7H-pyrrolo[2,3-c]pyridin-7-one] | < 50 | <500
10 | C[C@H]1CCCN(Cc2cc3c(C(F)(F)F)cn(-c4cccc(C(C)(C)c5nncn5C)c4)c(=O)c3[nH]2)C1 [Compound T017, 6-[3-[1-methyl-1-(4-methyl-1,2,4-triazol-3-yl)ethyl]phenyl]-2-[[(3S)-3-methyl-1-piperidyl]methyl]-4-(trifluoromethyl)-1H-pyrrolo[2,3-c]pyridin-7-one] | < 50 | <500
11 | CCN(CC)Cc1cc2c(C(F)(F)F)cn(-c3cccc([C@]4(c5nncn5C)C[C@@H](C)C4)c3)c(=O)c2[nH]1 [Compound T018, 2-((diethylamino)methyl)-6-(3-((1s,3s)-3-methyl-1-(4-methyl-4H-1,2,4-triazol-3-yl)cyclobutyl)phenyl)-4-(trifluoromethyl)-1,6-dihydro-7H-pyrrolo[2,3-c]pyridin-7-one] | < 50 | <500
12 | CCN(Cc1cc2c(C(F)(F)F)cn(-c3cccc(C4(c5nncn5C)CCC4)c3)c(=O)c2[nH]1)C(C)C [Compound T019, 2-[[ethyl(isopropyl)amino]methyl]-6-[3-[1-(4-methyl-1,2,4-triazol-3-yl)cyclobutyl]phenyl]-4-(trifluoromethyl)-1H-pyrrolo[2,3-c]pyridin-7-one] | < 50 | <500
13 | Cn1cnnc1C1(c2cccc(-n3cc(C(F)(F)F)c4cc(CN5CCC6(CC6)C5)[nH]c4c3=O)c2)CCC1 [Compound T023, 2-(5-azaspiro[2.4]heptan-5-ylmethyl)-6-[3-[1-(4-methyl-1,2,4-triazol-3-yl)cyclobutyl]phenyl]-4-(trifluoromethyl)-1H-pyrrolo[2,3-c]pyridin-7-one] | < 50 | <500
14 | Cn1cnnc1C1(c2cccc(-n3cc(C(F)(F)F)c4cc(CN5CC[C@H]6C[C@H]6C5)[nH]c4c3=O)c2)CCC1 [Compound T024, 2-[[(1R,6R)-3-azabicyclo[4.1.0]heptan-3-yl]methyl]-6-[3-[1-(4-methyl-1,2,4-triazol-3-yl)cyclobutyl]phenyl]-4-(trifluoromethyl)-1H-pyrrolo[2,3-c]pyridin-7-one] | < 50 | <500
15 | Cn1cnnc1C1(c2cccc(-n3cc(C(F)(F)F)c4cc(CN5CC[C@@H]6C[C@@H]6C5)[nH]c4c3=O)c2)CCC1 [Compound T025, 2-[[(1 S,6S)-3-azabicyclo[4.1.0]heptan-3-yl]methyl]-6-[3-[1-(4-methyl-1,2,4-triazol-3-yl)cyclobutyl]phenyl]-4-(trifluoromethyl)-1H-pyrrolo[2,3-c]pyridin-7-one] | < 50 | <500
16 | Cn1cnnc1C1(c2cccc(-n3cc(C(F)(F)F)c4cc(CN5CCC[C@H]6C[C@H]65)[nH]c4c3=O)c2)CCC1 [Compound T026, 2-(((1R,6S)-2-azabicyclo [4.1.0]heptan-2-yl)methyl)-6-(3-(1-(4-methyl-4H-1,2,4-triazol-3-yl)cyclobutyl)phenyl)-4-(trifluoromethyl)-1,6-dihydro-7H-pyrrolo[2,3-c]pyridin-7-one] | < 50 | <500
17 | Cn1cnnc1C1(c2cccc(-n3cc(C(F)(F)F)c4cc(CN5CCC[C@@H]6C[C@@H]65)[nH]c4c3=O)c2)CCC1 [Compound T027, 2-(((1 S,6R)-2-azabicyclo [4.1.0]heptan-2-yl)methyl)-6-(3-(1-(4-methyl-4H-1,2,4-triazol-3-yl)cyclobutyl)phenyl)-4-(trifluoromethyl)-1,6-dihydro-7H-pyrrolo[2,3-c]pyridin-7-one] | < 50 | <500
18 | Cn1cnnc1[C@]1(c2cccc(-n3cc(C(F)(F)F)c4cc(CN5CC6CC6C5)[nH]c4c3=O)c2)C[C@H](C)C1 (stereo partly shown) [Compound T028, 2-((3-azabicyclo[3.1.0]hexan-3-yl)methyl)-6-(3-((1s,3s)-3-methyl-1-(4-methyl-4H-1,2,4-triazol-3-yl)cyclobutyl)phenyl)-4-(trifluoromethyl)-1,6-dihydro-7H-pyrrolo[2,3-c]pyridin-7-one] | < 50 | <500
19 | C[C@H]1CCCN(Cc2cc3c(C(F)(F)F)cn(-c4cccc([C@]5(c6nncn6C)C[C@@H](C#N)C5)c4)c(=O)c3[nH]2)C1 [Compound T137, (1R,3s)-3-(4-methyl-4H-1,2,4-triazol-3-yl)-3-(3-(2-(((S)-3-methylpiperidin-1-yl)methyl)-7-oxo-4-(trifluoromethyl)-1,7-dihydro-6H-pyrrolo[2,3-c]pyridin-6-yl)phenyl)cyclobutane-1-carbonitrile] | – | <500
20 | C[C@H]1CCCN(Cc2cc3c(C(F)(F)F)cn(-c4cccc([C@]5(c6nncn6C)C[C@@H](CC#N)C5)c4)c(=O)c3[nH]2)C1 [Compound T139, 2-((1R,3s)-3-(4-methyl-4H-1,2,4-triazol-3-yl)-3-(3-(2-(((S)-3-methylpiperidin-1-yl)methyl)-7-oxo-4-(trifluoromethyl)-1,7-dihydro-6H-pyrrolo[2,3-c]pyridin-6-yl)phenyl)cyclobutyl)acetonitrile] | – | <500
21 | CO[C@H]1C[C@@](c2cccc(-n3cc(C(F)(F)F)c4cc(CN5CCC[C@H]6C[C@H]65)[nH]c4c3=O)c2)(c2nncn2C)C1 [Compound T183] | – | <500
22 | CO[C@H]1C[C@](c2cccc(-n3cc(C(F)(F)F)c4cc(CN5CCC[C@H]6C[C@H]65)[nH]c4c3=O)c2)(c2nncn2C)C1 [Compound T185] | – | <500
